These results are taken from patent publication US20240252488A1 (KOREA RESEARCH INSTITUTE OF CHEMICAL TECHNOLOGY, priority 2020, published 2024).

The target in assay [1] is T1, MLKL (Homo sapiens, UniProt Q8NB16).
T1 sequence (Q8NB16 1-471): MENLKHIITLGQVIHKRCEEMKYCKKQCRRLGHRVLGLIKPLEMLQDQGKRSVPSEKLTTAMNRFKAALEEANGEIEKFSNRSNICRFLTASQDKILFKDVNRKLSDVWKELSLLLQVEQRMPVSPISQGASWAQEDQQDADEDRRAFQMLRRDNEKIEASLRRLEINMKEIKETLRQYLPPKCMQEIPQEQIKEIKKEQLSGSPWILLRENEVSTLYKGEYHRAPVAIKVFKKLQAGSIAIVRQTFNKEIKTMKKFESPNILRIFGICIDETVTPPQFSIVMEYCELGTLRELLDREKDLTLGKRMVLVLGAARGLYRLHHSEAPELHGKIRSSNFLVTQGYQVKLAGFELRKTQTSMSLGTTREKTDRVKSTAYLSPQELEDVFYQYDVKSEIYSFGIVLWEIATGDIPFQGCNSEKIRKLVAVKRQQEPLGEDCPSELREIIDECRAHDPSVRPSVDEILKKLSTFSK
The assay can be described thus: Measurement of binding affinity with MLKL receptor (competitive binding assay, Kd). On the set-up: made in house; host or cells: HEK 293 cell line (T7 phage in E. coli BL21-derived host is also described). The essentials: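 qPCR of MLKL eluted from liganded beads served as the read-out, from which Kd was derived. The protein was made in HEK 293 cells with a DNA tag, and test compounds competed with the bead-bound ligand at 0.9% final DMSO.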

A further assay concerns FADD−/− Jurkat cells. The assay can be described thus: Necroptosis inhibition assay, TNF-α-induced necroptosis (CellTiter-Glo 2.0). In kind it is cell-based, human. The note with it: TNF-α 15 ng/mL; for Necroptosis inhibition assay (Rescue %) 1 μM: compound 1 μM; for Necroptosis inhibition assay (Rescue %) 10 μM: compound 10 μM. In a few lines:
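Cells at 5.0×10^5 cells/mL were pretreated with compound (final 0.1, 1 and 10 μM) for 30 minutes at room temperature, then given TNF-α at 15 ng/mL final. After 20 to 24 hours at 37° C, 5% CO2, viability was read as ATP luminescence to calculate cytotoxicity and necroptosis inhibition rate.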

In assay [2] the target is T1, MLKL. Put plainly: MLKL degradation assay in HepG2 cell line (western blot). On the set-up: endogenous in cells; host or cells: HepG2 or HaCaT. In kind it is cell-based. The note with it: cell line not given; for Degradation assay (Degradation %) 1 μM: compound 1 μM; for Degradation assay (Degradation %) 10 μM: compound 10 μM. In a few lines:
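HepG2 cells were exposed to compound at a final 1 or 10 μM for 20-24 hours at 37 °C, 5% CO2. RIPA lysates were normalized by BCA assay, 10-15 μg protein resolved by SDS-PAGE, and MLKL levels detected by western blot with chemiluminescence.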

Broadly, the Kd is a measure of binding affinity in units of concentration. Low readings indicate tighter binding, high ones weaker binding. Take `Nc1ncc(-c2cnn(C3CCN(CCCN4CCN(C(=O)CC5CCN(c6ccc7c(c6)C(=O)N(C6CCC(=O)NC6=O)C7=O)CC5)CC4)CC3)c2)nc1C(=O)O[C@@H](C(=O)Nc1ccc(F)cc1)c1ccccc1` (stereo partly drawn) [TDH-369, (R)-2-((4-fluorophenyl)amino)-2-oxo-1-phenylethyl 3-amino-6-(1-(1-(3-(4-(2-(1-(2-(2,6-dioxopiperidin-3-yl)-1,3-dioxoisoindolin-5-yl)piperidin-4-yl)acetyl)piperazin-1-yl)propyl)piperidin-4-yl)-1H-pyrazol-4-yl)pyrazine-2-carboxylate]: the Kd at MLKL [1] was 1.1 nM. In the assay on FADD−/− Jurkat cells, the “Necroptosis inhibition assay (Rescue %) 1 μM” value came to 48.04% and the “Necroptosis inhibition assay (Rescue %) 10 μM” value came to 22.49%. Besides, on MLKL [2], the “Degradation assay (Degradation %) 1 μM” value was found to be 73.33% and the “Degradation assay (Degradation %) 10 μM” value turned out to be 94%.
At MLKL [1], `Nc1ncc(-c2cnn(C3CCN(CCCCCCCCCCNC(=O)C4CCN(c5ccc6nnn(C7CCC(=O)NC7=O)c(=O)c6c5)CC4)CC3)c2)nc1C(=O)O[C@@H](C(=O)Nc1ccc(F)cc1)c1ccccc1` (stereo partly drawn) [TDH-177, (R)-2-((4-fluorophenyl)amino)-2-oxo-1-phenylethyl 3-amino-6-(1-(1-(10-(1-(3-(2,6-dioxopiperidin-3-yl)-4-oxo-3,4-dihydrobenzo[d][1,2,3]triazin-6-yl)piperidine-4-carboxamido)decyl)piperidin-4-yl)-1H-pyrazol-4-yl)pyrazine-2-carboxylate] showed a Kd of 84 nM. In the assay with FADD−/− Jurkat cells, the “Necroptosis inhibition assay (Rescue %) 1 μM” value amounted to 41.3% and the “Necroptosis inhibition assay (Rescue %) 10 μM” value amounted to 48.7%. At MLKL [2], the “Degradation assay (Degradation %) 1 μM” value was found to be 36.03% and the “Degradation assay (Degradation %) 10 μM” value was determined as 75.8%.
In the case of `Nc1ncc(-c2cnn(C3CCN(CCOC4CCN(C(=O)c5ccc(C(=O)NC6CCC(=O)NC6=O)cc5)CC4)CC3)c2)nc1C(=O)O[C@@H](C(=O)Nc1ccc(F)cc1)c1ccccc1` (stereo partly drawn) [TDH-538, (R)-2-((4-fluorophenyl)amino)-2-oxo-1-phenylethyl 3-amino-6-(1-(1-(2-((1-(4-((2,6-dioxopiperidin-3-yl)carbamoyl)benzoyl)piperidin-4-yl)oxy)ethyl)piperidin-4-yl)-1H-pyrazol-4-yl)pyrazine-2-carboxylate], at MLKL [1], binding was characterised by a dissociation constant (Kd) of 0.31 nM. In addition, in the assay with FADD−/− Jurkat cells (FADD−/− Jurkat cells), the “Necroptosis inhibition assay (Rescue %) 1 μM” value amounted to 24.02% and the “Necroptosis inhibition assay (Rescue %) 10 μM” value is recorded as 21.52%. Moreover, on MLKL [2], the “Degradation assay (Degradation %) 1 μM” value is 66.34% and the “Degradation assay (Degradation %) 10 μM” value is given as 54.70%.
In the same order, the values of `Nc1ncc(-c2cnn(C3CCN(C(=O)C4CCN(C(=O)C5CCN(c6cccc7nnn(C8CCC(=O)NC8=O)c(=O)c67)CC5)CC4)CC3)c2)nc1C(=O)O[C@@H](C(=O)Nc1ccc(F)cc1)c1ccccc1` (stereo partly drawn) [TDH-414, (R)-2-((4-fluorophenyl)amino)-2-oxo-1-phenylethyl 3-amino-6-(1-(1-(1-(1-(3-(2,6-dioxopiperidin-3-yl)-4-oxo-3,4-dihydrobenzo[d][1,2,3]triazin-5-yl)piperidine-4-carbonyl)piperidine-4-carbonyl)piperidin-4-yl)-1H-pyrazol-4-yl)pyrazine-2-carboxylate] are 0.79 nM, 17.52%, 13.19%, 75.28% and 74.89%.
In turn, `Nc1ncc(-c2cnn(C3CCN(CCOCCOCCOCCNC(=O)C4CN(c5cccc6c5C(=O)N(C5CCC(=O)NC5=O)C6=O)C4)CC3)c2)nc1C(=O)O[C@@H](C(=O)Nc1ccc(F)cc1)c1ccccc1` (stereo partly drawn) [TDH-141, (R)-2-((4-fluorophenyl)amino)-2-oxo-1-phenylethyl 3-amino-6-(1-(1-(1-(1-(2-(2,6-dioxopiperidin-3-yl)-1,3-dioxoisoindolin-4-yl)azetidin-3-yl)-1-oxo-5,8,11-trioxa-2-azatridecan-13-yl)piperidin-4-yl)-1H-pyrazol-4-yl)pyrazine-2-carboxylate] had a dissociation constant Kd on MLKL [1] of 8.1 nM. In the assay on FADD−/− Jurkat cells, the “Necroptosis inhibition assay (Rescue %) 1 μM” value was 2.72% and the “Necroptosis inhibition assay (Rescue %) 10 μM” value amounted to 10.22%. Further, on MLKL [2], the “Degradation assay (Degradation %) 1 μM” value was 17.47% and the “Degradation assay (Degradation %) 10 μM” value amounted to 58.93%.
Molecule `Nc1ncc(-c2cnn(C3CCN(C(=O)C4CCN(C(=O)C5CN(c6ccc7nnn(C8CCC(=O)NC8=O)c(=O)c7c6)C5)CC4)CC3)c2)nc1C(=O)O[C@@H](C(=O)Nc1ccc(F)cc1)c1ccccc1` (stereo partly drawn) [TDH-409, (R)-2-((4-fluorophenyl)amino)-2-oxo-1-phenylethyl 3-amino-6-(1-(1-(1-(1-(3-(2,6-dioxopiperidin-3-yl)-4-oxo-3,4-dihydrobenzo[d][1,2,3]triazin-6-yl)azetidine-3-carbonyl)piperidine-4-carbonyl)piperidin-4-yl)-1H-pyrazol-4-yl)pyrazine-2-carboxylate] returned a dissociation constant (Kd) on MLKL [1] of 1.6 nM. Moreover, in the assay with FADD−/− Jurkat cells (FADD−/− Jurkat cells), the “Necroptosis inhibition assay (Rescue %) 1 μM” value is given as 39.62% and the “Necroptosis inhibition assay (Rescue %) 10 μM” value was 24.45%. Moreover, on MLKL [2], the “Degradation assay (Degradation %) 1 μM” value turned out to be 81.20% and the “Degradation assay (Degradation %) 10 μM” value was determined as 71.90%.
On MLKL [1], `Nc1ncc(-c2cnn(C3CCN(CC4CCN(c5cccc6c5C(=O)N(C5CCC(=O)NC5=O)C6=O)CC4)CC3)c2)nc1C(=O)O[C@@H](C(=O)Nc1ccc(F)cc1)c1ccccc1` (stereo partly drawn) [TDH-149, (R)-2-((4-fluorophenyl)amino)-2-oxo-1-phenylethyl 3-amino-6-(1-(1-((1-(2-(2,6-dioxopiperidin-3-yl)-1,3-dioxoisoindolin-4-yl)piperidin-4-yl)methyl)piperidin-4-yl)-1H-pyrazol-4-yl)pyrazine-2-carboxylate] came in with a Kd of 40 nM. Besides, in the assay with FADD−/− Jurkat cells, the “Necroptosis inhibition assay (Rescue %) 1 μM” value was found to be 82.1% and the “Necroptosis inhibition assay (Rescue %) 10 μM” value worked out at 55.19%. On MLKL [2], the “Degradation assay (Degradation %) 1 μM” value is on record as 48.51% and the “Degradation assay (Degradation %) 10 μM” value came out at 77.36%.
In the same order, the values of `Nc1ncc(-c2cnn(C3CCN(CCCCCCNC(=O)C4CCN(c5cccc6c5C(=O)N(C5CCC(=O)NC5=O)C6=O)CC4)CC3)c2)nc1C(=O)O[C@@H](C(=O)Nc1ccc(F)cc1)c1ccccc1` (stereo partly drawn) [TDH-108, (R)-2-((4-fluorophenyl)amino)-2-oxo-1-phenylethyl 3-amino-6-(1-(1-(6-(1-(2-(2,6-dioxopiperidin-3-yl)-1,3-dioxoisoindolin-4-yl)piperidine-4-carboxamido)hexyl)piperidin-4-yl)-1H-pyrazol-4-yl)pyrazine-2-carboxylate] are 4.4 nM, 75.49%, 43.94%, 48.06% and 43.66%.
In the same order, the values of `Nc1ncc(-c2cnn(C3CCN(C(=O)CC4CCN(c5ccc6c(c5)C(=O)N(C5CCC(=O)NC5=O)C6=O)CC4)CC3)c2)nc1C(=O)O[C@@H](C(=O)Nc1ccc(F)cc1)c1ccccc1` (stereo partly drawn) [TDH-344, (R)-2-((4-fluorophenyl)amino)-2-oxo-1-phenylethyl 3-amino-6-(1-(1-(2-(1-(2-(2,6-dioxopiperidin-3-yl)-1,3-dioxoisoindolin-5-yl)piperidin-4-yl)acetyl)piperidin-4-yl)-1H-pyrazol-4-yl)pyrazine-2-carboxylate] are 13 nM, 14.48%, 17.63%, 64.15% and 47.75%.
In turn, `Nc1ncc(-c2cnn(C3CCN(CCCCCCCCCCNC(=O)CNc4ccc5nnn(C6CCC(=O)NC6=O)c(=O)c5c4)CC3)c2)nc1C(=O)O[C@@H](C(=O)Nc1ccc(F)cc1)c1ccccc1` (stereo partly drawn) [TDH-173, (R)-2-((4-fluorophenyl)amino)-2-oxo-1-phenylethyl 3-amino-6-(1-(1-(10-(2-((3-(2,6-dioxopiperidin-3-yl)-4-oxo-3,4-dihydrobenzo[d][1,2,3]triazin-6-yl)amino)acetamido)decyl)piperidin-4-yl)-1H-pyrazol-4-yl)pyrazine-2-carboxylate] displayed a Kd on MLKL [1] of 17 nM. In addition, in the assay with FADD−/− Jurkat cells, the “Necroptosis inhibition assay (Rescue %) 1 μM” value is 47.27% and the “Necroptosis inhibition assay (Rescue %) 10 μM” value stood at 35.55%. Also, on MLKL [2], the “Degradation assay (Degradation %) 1 μM” value is listed as 61.08% and the “Degradation assay (Degradation %) 10 μM” value amounted to 75.11%.
